Values joined by “and” are separate entries in the source; they are usually repeats but may differ in a detail not shown here. Equal values may be shown once. Read-outs that look alike come from different tables or passages of the source.
Key:
MCL-1 = MCL-1 (Homo sapiens (Human), UniProt Q07820, K194A/K197A/R201A); assay: Protein-protein interaction assay MCL-1/Noxa BH3 peptide (MCL-1 assay), TR-FRET; assay type: binding; details: MCL-1/Noxa BH3 peptide TR-FRET; median
Method: Protein-Protein Interaction Assay: MCL-1/Noxa BH3 Peptide (MCL-1 Assay)
The dose-dependent inhibition by the compounds described in this invention of the interaction between MCL-1 and the BH3 domain of Noxa (both human) was determined using a steady state binding competition assay with time-resolved fluorescence energy transfer (TR-FRET) readout. For that purpose MCL-1 (amino acids 173-321, N-terminal fused to Maltose Binding Protein (MBP) SEQ ID 1)) and a synthetic Noxa BH3-derived peptide of sequence Biotin-PEG2-PEG2-PAELEVE-Nva-ATQLRRFGDKLNFRQKLL-amide (SEQ ID 2) served as protein receptor and tracer ligand respectively. The MBP-MCL-1 was purchased from Beryllium (Bedford, Mass., USA). The expression and purification of this protein construct has been described elsewhere (DOI:10.1371/journal.pone.0125010). The Noxa BH3-derived peptide can be obtained from e.g. Biosyntan (Berlin, Germany).
In the assay 11 different concentrations of each compound (0.1 nM, 0.33 nM, 1.1 nM, 3.8 nM, 13 nM, 44 nM, 0.15 μM, 0.51 μM, 1.7 μM, 5.9 μM and 20 μM) were typically measured as duplicates in the same microtiter plate. For that, 100-fold concentrated DMSO solutions were prepared by serial dilutions (1:3.4) of a 2 mM stock solution in a clear, 384-well microtiter plate (Greiner Bio-One, Frickenhausen, Germany). From there, 50 nl were transferred in a dark test plate (Greiner Bio-One, Frickenhausen, Germany). The assay was initiated by addition of 2 μl of a 2,5-fold concentrated MBP-MCL-1 solution (usually for a 1 nM end concentration in 5 μl reaction volume) in aqueous assay buffer [50 mM Tris/HCl pH 7, 100 mM sodium chloride (NaCl), 50 mM potassium fluoride (KF), 0.005% Tween-20, 2 mM DTT, 0.1% bovine gamma globulin (BGG)] to the compounds in the assay plate. This was followed by a 10-minute incubation step at 22° C. for pre-equilibration of the putative complex between MBP-MCL-1 and the compounds. After that, 3 μl of a 1.67-fold concentrated solution (in assay buffer) consisting of Noxa BH3-derived peptide (1 nM end concentration) and TR-FRET detection reagents [1.67 nM anti-MBP-Eu cryptate and 1.67 nM streptavidin-XL665 (both from Cisbio Bioassays, Codolet, France)], were added.
The mixture was incubated in the dark for one hour at 22° C. and then overnight at 4° C. The formation of MCL-1/Noxa complexes was determined by measuring the resonance energy transfer of the anti-MBP-Eu-cryptate antibody to the streptavidin-XL665 present in the reaction. For that purpose, the fluorescence emission at 620 nm and 665 nm after excitation at 330-350 nm was measured in a TR-FRET measuring instrument, for instance a Rubystar or a Pherastar (both from BMG Lab Technologies, Offenburg, Germany) or a Viewlux (Perkin-Elmer). The ratio of the emission at 665 nm and at 622 nm was used as indicator of the amount of MCL-1/NOXA complexes present.
The resulting data (ratio) were normalized, taking 0% inhibition as the mean value of control measurements (usually 32 data points) where all reagents were included. In this case 50 nl DMSO were used instead of compounds. A 100% inhibition corresponded to the mean value of control measurements (usually 32 data points) where all reagents except MCL-1 were included. IC50 values were determined by regression analysis based on a 4 parameter equation (minimum, maximum, IC50, Hill; Y=Max+(Min−Max)/(1+(X/IC50)^Hill) using the Screener Software (Genedata).

SUDHL10 [1] = assay: Induction of cytotoxicity, SUDHL10 (Assay 6); details: read-out: IC50 Cytotox SUDHL10 [M] (median), SUDHL10 cells, 5 h, CellTiter-Glo
Method: In principle, compounds that induce apoptosis will concomitantly induce cell cytotoxicity. Therefore, cytotoxicity assays were run in parallel in SUDHL5 and SUDHL10 cells.
The different cell lines were plated in culture medium (RPMI 1640 [GIBCO #22400-089] supplemented with 10% Fetal Bovine Serum) at a density of 3,300 cells in 30 μl/well in a sterile, solid black, flat bottom, polystyrene, TC-treated 384-well microplate (Corning #3571) using Multidrop Combi Reagent Dispenser. As a control, medium without cells was also added to the plate. Cells were incubated in a humidified incubator at 37° C. overnight. On the next day, the cells were treated with compounds (stock solution, 10 mM in DMSO) using the HP D300 Digital Dispenser in a concentration range of 3.3×10e-5 M (33 μM) to 5×10e-9 M (5 nM) in a single-dot curve with at least 16 dilutions and a DMSO concentration of 0.33%. Rim wells were excluded. The cells were incubated for 5 h hours in a humidified incubator at 37° C. After this incubation, 30 μl of CellTiter-Glo® Luminescent Cell Viability reagent (Promega, G7573) was added to each well using the Multidrop Combi Reagent Dispenser, followed by 15 min incubation on a shaker at room temperature. Finally, luminescence was read at 0.1 ms, with a gain of 3000 using the PHERAstar FS microplate reader (BMG Labtech).
The Bella DRC Master Sheet was used to calculate IC50s, with fixed CI=0 and C0=1.

SUDHL10 [2] = assay: Induction of caspase-3/7 activity, SUDHL10 (Assay 4); assay type: cell-based; details: SUDHL10 cells
Method: (§1) Induction of Caspase-3/7 Activity upon Treatment of Cells with Selected Compounds
(§2) The BH3-domain of MCL-1 sequesters pro-apoptotic proteins, thereby inhibiting apoptosis. In contrast, MCL-1 inhibitors are expected to antagonize this effect leading to an increase in apoptosis, which can be determined by measuring the activity of caspase-3/7.
(§3) The activity of caspase-3/7 was determined in DLBCL (Diffuse large B-cell lymphoma) cell lines (SUDHL5 and SUDHL10) upon treatment with different compounds, using the Caspase-Glo® 3/7 reagent from Promega (G8092).
(§4) Rim wells were excluded. The cells were incubated for 3 h hours in a humidified incubator at 37° C.
(§5) For the evaluation of the results, the background measured with “medium-only” was subtracted from all other values. […] The Bella DRC Master Sheet was used to calculate EC50s, with fixed C0=1 and Cl=plateau/max induction for the reference compound.

AMO-1 = assay: Antiproliferation assay AMO-1 (Assay 7); assay type: cell-based; details: AMO-1 cells, CellTiter-Glo, single determinations, read-out: IC50 Antiproli AMO-1
Method: (§6) Assessment of the Anti-Proliferative Effect of Compounds in Different Cell Lines
(§7) The impact of compounds on the proliferation of different cell lines was assessed using the CellTiter-Glo® Luminescent Cell Viability reagent from Promega (G7573).
(§8) In parallel, cells were plated in a reference (day 0) plate for time zero determination.
(§9) Rim wells were excluded. The cells were incubated for 72 h hours in a humidified incubator at 37° C. The day 0 plate was measured by adding 30 μL/well of CTG solution (CellTiter-Glo® Luminescent Cell Viability reagent, Promega G7573) to time zero wells in the reference plate followed by a 10 minutes incubation and luminescence reading at 0.1 ms. using the PHERAstar FS microplate reader (BMG Labtech).
(§10) After 72 h incubation, the treated plates were measured in the same way as the day 0 plate mentioned above.

SUDHL5 [3] = assay: Antiproliferation assay SUDHL5 (Assay 7); assay type: cell-based; details: SUDHL5 cells, CellTiter-Glo, median, read-out: IC50 Antiproli SUDHL5 [M] (median)
Method: as §6, §7, §8, §9, §10

A2780 = assay: Antiproliferation assay A2780 (Assay 7); assay type: cell-based; details: A2780 cells, CellTiter-Glo, single determinations, read-out: IC50 Antiproli A2780
Method: as §6, §7, §8, §9, §10

SUDHL5 [4] = assay: Induction of cytotoxicity, SUDHL5 (Assay 6); details: read-out: IC50 Cytotox SUDHL5 [M] (median), SUDHL5 cells, 5 h, CellTiter-Glo
SUDHL10 [5] = assay: Antiproliferation assay SUDHL10 (Assay 7); assay type: cell-based; details: Homo sapiens, SU-DHL10; SUDHL10 cells, 72 h, CellTiter-Glo; median; read-out: IC50 Antiproli SUDHL10 [M] (median)
Method: as §6, §7, §8, §9, §10

SUDHL5 [6] = assay: Induction of caspase-3/7 activity, SUDHL5 (Assay 4); assay type: cell-based; details: Homo sapiens, SU-DHL-5, 3 h, SUDHL5 cells, Caspase-Glo 3/7, median
Method: as §1, §2, §3, §4, §5

SK-BR-3 = assay: Antiproliferation assay SK-BR-3 (Assay 7); assay type: cell-based; details: Homo sapiens, SK-BR-3, 72 h, SK-BR-3 cells, CellTiter-Glo, single determinations, read-out: IC50 Antiproli SK-BR-3
Method: as §6, §7, §8, §9, §10

MV-4-11 = assay: Antiproliferation assay MV-4-11 (Assay 7); assay type: cell-based; details: MV-4-11 cells, CellTiter-Glo, single determinations, read-out: IC50 Antiproli MV-4-11
Method: as §6, §7, §8, §9, §10

HMC-1-8 = assay: Antiproliferation assay HMC-1-8 (Assay 7); assay type: cell-based; details: HMC-1-8 cells, 72 h, CellTiter-Glo; single determinations; read-out: IC50 Antiproli HMC-1-8
Method: as §6, §7, §8, §9, §10

[7] = amine bond, Cs2CO3
[8] = Homo sapiens, SU-DHL10, 3 h, Caspase-Glo 3/7, median

Chain of MCL-1 (Q07820 whole entry K194A/K197A/R201A, looked up): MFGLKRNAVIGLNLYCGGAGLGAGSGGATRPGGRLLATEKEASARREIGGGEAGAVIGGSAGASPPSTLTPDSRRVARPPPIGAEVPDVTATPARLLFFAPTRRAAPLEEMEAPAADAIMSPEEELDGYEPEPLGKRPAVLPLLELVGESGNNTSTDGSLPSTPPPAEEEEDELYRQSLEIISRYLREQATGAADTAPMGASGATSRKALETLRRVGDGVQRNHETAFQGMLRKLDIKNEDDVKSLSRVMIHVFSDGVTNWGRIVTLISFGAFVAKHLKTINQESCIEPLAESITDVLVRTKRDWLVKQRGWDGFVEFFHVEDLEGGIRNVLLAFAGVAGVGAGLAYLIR

Compound	IC50 (MCL-1) [nM]	EC50 (SUDHL10 [2]; [8]) [nM]	IC50 (SUDHL5 [3]; Homo sapiens, SU-DHL-5, 72 h) [M]	IC50 (A2780; Homo sapiens, A2780, 72 h) [nM]	IC50 (SUDHL10 [5]) [M]	EC50 (SUDHL5 [6]) [nM]	IC50 (SUDHL10 [1]; Homo sapiens, SU-DHL10, 5 h) [M]	IC50 (AMO-1; 72 h)	IC50 (AMO-1; Homo sapiens, AMO1, 72 h) [nM]	IC50 (SUDHL5 [4]; Homo sapiens, SU-DHL-5, 5 h) [M]	other results
Cc1c2c(nn1C)COCCCCn1c(C(=O)O)c(CCCOc3cccc4cc(F)ccc34)c3ccc(F)c-2c31 (racemic) [Example 12, (rac)-13-fluoro-1-(3-((6-fluoronaphthalen-1-yl)oxy)propyl)-11,12-dimethyl-4,5,6,7,9,11-hexahydropyrazolo[4′,3′:9,10][1]oxa[6]azacycloundecino[8,7,6-hi]indole-2-carboxylic acid]	0.85	800	6.5e-07	4680	7.2e-07	480	8.2e-07	869 nM	1510	6e-07	–
CCc1c2c(nn1C)COCCCCn1c(C(=O)O)c(CCCOc3cccc4ccccc34)c3ccc(F)c-2c31 (racemic) [Example 6, (rac)-3-ethyl-4-fluoro-2-methyl-7-[3-(naphthalen-1-yloxy)propyl]-2,10,11,12,13,15-hexahydro-pyrazolo[4′,3′:9,10][1,6]oxazacycloundecino[8,7,6-hi]indole-8-carboxylic acid]	1.1	1100	9.8e-07	14500	–	400	1.3e-06	–	2630	6.4e-07	IC50 (SK-BR-3): 7290 nM; IC50 (A2780; 72 h, listed as 06): 10600 nM and 13100 nM; IC50 (MV-4-11; Homo sapiens, MV4-11, 72 h): 3830 nM; IC50 (MV-4-11; 72 h, listed as 06): 2820 nM and 2760 nM and 2350 nM
CCOC(=O)c1c(CCCOc2cccc3ccccc23)c2ccc(F)c3c2n1CCCCNCc1nn(C)c(C)c1-3	–	–	–	–	–	–	–	–	–	–	ring closure, yield of all isomers ([7]; from CCOC(=O)c1c(CCCOc2cccc3ccccc23)c2ccc(F)c(-c3c(CBr)nn(C)c3C)c2n1CCCCN, DMF, 10.0 mM, 65.0 °C, 17.0 h): 48.6%
CCOC(=O)c1c(CCCO)c2ccc(F)c3c2n1CCCCN(C)Cc1nn(C)c(CC)c1-3	–	–	–	–	–	–	–	–	–	–	ring closure, yield of all isomers ([7]; from CCOC(=O)c1c(CCCO[Si](C)(C)C(C)(C)C)c2ccc(F)c(-c3c(CBr)nn(C)c3CC)c2n1CCCCN(C)C(=O)OC(C)(C)C, acetonitrile, 44.5 mM, 60.0 °C, 6.0 h, 2 steps): 46%
CCc1c2c(nn1C)COCCCCn1c(C(=O)O)c(CCCOc3cccc4cc(F)ccc34)c3ccc(F)c-2c31 (racemic) [Example 21, (rac)-12-ethyl-13-fluoro-1-(3-((6-fluoronaphthalen-1-yl)oxy)propyl)-11-methyl-4,5,6,7,9,11-hexahydropyrazolo[4′,3′:9,10][1]oxa[6]azacycloundecino[8,7,6-hi]indole-2-carboxylic acid]	0.86	900	7.3e-07	3470	6.3e-07	350	8.5e-07	942 nM and 1120 nM	1220	5.1e-07	–

Second part, led by results:

IC50 (MCL-1) [nM]	EC50 (SUDHL10 [2]; [8]) [nM]	IC50 (SUDHL5 [3]; Homo sapiens, SU-DHL-5, 72 h) [M]	IC50 (A2780; Homo sapiens, A2780, 72 h) [nM]	IC50 (SUDHL10 [5]) [M]	EC50 (SUDHL5 [6]) [nM]	Compound	IC50 (SUDHL10 [1]; Homo sapiens, SU-DHL10, 5 h) [M]	IC50 (AMO-1; 72 h)	IC50 (AMO-1; Homo sapiens, AMO1, 72 h) [nM]	IC50 (SUDHL5 [4]; Homo sapiens, SU-DHL-5, 5 h) [M]	other results
13	–	–	–	–	–	CCc1c2c(nn1C)COCCCCn1c(C(=O)O)c(CCCOc3cccc4cc(F)ccc34)c3ccc(F)c-2c31 (single isomer, unassigned; enantiomer 2) [Example 25, 3-ethyl-4-fluoro-7-{3-[(6-fluoronaphthalen-1-yl)oxy]propyl}-2-methyl-2,10,11,12,13,15-hexahydropyrazolo[4′,3′:9,10][1,6]oxazacycloundecino[8,7,6-hi]indole-8-carboxylic acid (enantiomer 2)]	–	32800 nM	–	–	IC50 (SUDHL10 [1]): 2.2e-05 M; EC50 (SUDHL10 [2]; 3 h, Caspase-Glo 3/7, median): > 33000 nM; IC50 (SUDHL5 [3]; 72 h): 8.1e-06 M; IC50 (SUDHL5 [4]): 1.2e-05 M; IC50 (HMC-1-8): 20900 nM
1.1	2000	9.3e-07	–	1e-06	870	CCc1nn(C)c2c1-c1c(F)ccc3c(CCCOc4cccc5cc(F)ccc45)c(C(=O)O)n(c13)CCCCOC2 (racemic) [Example 38, (rac)-12-ethyl-13-fluoro-1-(3-((6-fluoronaphthalen-1-yl)oxy)propyl)-10-methyl-4,5,6,7,9,10-hexahydropyrazolo[4′,3′:9,10][1]oxa[6]azacycloundecino[8,7,6-hi]indole-2-carboxylic acid]	1.4e-06	2460 nM and 1610 nM	2350	1e-06	–

From patent US11286263B2, “Macrocyclic fluorine substituted indole derivatives” (The Broad Institute, Inc., priority 2017, dated 2022)
